For test [1], the target named is HEK-293 cells expressing human recombinant adenosine A2A receptor (Homo sapiens (Human), UniProt P29274). In words: cAMP assay, Assay 2 (Eu-cAMP tracer / ULight-anti-cAMP). In kind it is cell-based. Particulars: Assay 2. The protocol:
The functional activity of compounds was tested using one of the two assays to detect the present of cAMP. Activation of G-protein coupled receptors (such as A2A) results in activation of adenylcyclase which converts ATP into cAMP which is used as a downstream signaling molecule. Therefore, molecules which act as GPCR (or specifically A2A receptor) antagonists cause a decrease in intracellular cAMP concentration.
Both assays used HEK-293 cells expressing human recombinant adenosine A2A receptor were grown prior to the test in media without antibiotic.
Assay 2 (Table B2-2): 100 nL of test articles at 100× of final concentration were transferred to assay plate by Echo. Cells were washed twice with 5 mL of PBS […]. After aspirating the PBS and adding 1.5 mL versine, cells were incubated at 37° C. for 2-5 min. After centrifugation, 4 mL of medium was added and adjusted cell density to 5,000 cells/well with Stimulation Buffer. 10 μL of cells were aliquoted to the assay plate, centrifuged at 1000 rpm for 1 minute, and incubated for 60 minutes at room temperature. 5 μL 4×Eu-cAMP tracer solution and 5 μL 4×Ulight™-anti-cAMP solution were added to assay plate, followed by centrifugation and 60-minute incubation at room temperature. Plates were read on EnVision.

Test [2] deals with human adenosine A2A membrane preparation (Homo sapiens (Human), UniProt P29274). Nature of the test: Adenosine A2A receptor radioligand binding assay (SPA beads, 3H-SCH 58261, 384 plate). To be noted: for inhibition at 0.01 µM: read-out: A2a binding % inh @ 10 nM; for inhibition at 0.1 µM: read-out: A2a binding % inh @ 100 nM; for inhibition at 1 µM: read-out: A2a binding % inh @ 1000 nM; for inhibition at 0.001 µM: read-out: A2a binding % inh @ 1 nM. The procedure:
For the A2A adenosine receptor radioligand binding assay, the following modifications were made to the general protocol. GF/C filters (Perkin Elmer, 6005174), presoaked in 0.01% Brij for 2 h at room temperature were used. Filters were washed six times with 0.5 mL of ice-cold washing buffer (50 mM Tris pH 7.4) and 50 μL of Microscint 20 (Packard) was added in each well. The plates were then incubated for 15 min on an orbital shaker and then counted with a TopCount™ for 1 min/well. Another radioligand binding assay was used to evaluate the binding affinity for the adenosine A2A receptor assay was performed in duplicate in the wells of a 384 plate. Assay buffer contained DPBS 500 mM, MgCl2 0.1 mM, and 1% DMSO. Membrane-bead suspension was prepared by mixing 25.98 μL of human adenosine A2A membrane preparation (Perkin Elmer, RBHA2AM400UA) at 33.4 μg/mL, 28 μL of ADA at 20 μg/mL, and 932 μL of SPA beads at 3.33 mg/mL) and incubated the mixture for 20 min at room temperature. Mixed 20 μL of radiotracer (^3H-SCH 58261) at 15 nM to each well containing test articles at various concentrations and centrifuge the plate at 1000 rpm for 1 minute. Added 30 μL of the membraine-bead suspension to each well. Sealed the plates and incubated for 1 hr at room temperature with vigorous mixing on a plate mixer. Plates were read on Microbeta^2 (Perkin Elmer, 2450-0010).

HEK-293 cells expressing human recombinant adenosine A2A receptor, sequence (P29274 whole entry): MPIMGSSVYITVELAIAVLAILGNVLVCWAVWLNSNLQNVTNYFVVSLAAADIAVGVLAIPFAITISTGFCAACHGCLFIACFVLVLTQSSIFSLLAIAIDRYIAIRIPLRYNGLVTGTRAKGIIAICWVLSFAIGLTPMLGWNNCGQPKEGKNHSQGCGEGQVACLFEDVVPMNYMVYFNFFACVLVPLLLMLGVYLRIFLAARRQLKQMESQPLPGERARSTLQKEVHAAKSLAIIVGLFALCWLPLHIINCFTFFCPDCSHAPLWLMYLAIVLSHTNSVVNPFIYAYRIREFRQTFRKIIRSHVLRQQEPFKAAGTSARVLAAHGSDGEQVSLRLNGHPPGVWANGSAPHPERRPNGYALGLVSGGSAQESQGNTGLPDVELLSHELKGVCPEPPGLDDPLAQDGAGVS
human adenosine A2A membrane preparation, sequence (P29274 whole entry): as above

Broadly, the IC50 is the midpoint of a concentration-inhibition curve. With `Cc1n[nH]c(C)c1-c1nc(N)cnc1-c1ccc2ncccc2c1` [Compound 1.294, 6-(3,5-dimethyl-1H-pyrazol-4-yl)-5-(quinolin-6-yl)pyrazin-2-amine], the IC50 in test [1] was above 10000 nM.
Consider `Cc1ccn(-c2nc(N)cnc2-c2cc(C)c3ncccc3c2)n1` [Compound 1.296, 6-(3-methyl-1H-pyrazol-1-yl)-5-(8-methylquinolin-6-yl)pyrazin-2-amine], for which the IC50 in test [1] worked out at 130 nM.
As for `Nc1cnc(-c2ccc3ncccc3c2)c(N2CCCC2)n1` [Compound 1.298, 6-(pyrrolidin-1-yl)-5-(quinolin-6-yl)pyrazin-2-amine], the IC50 in test [1] was above 10000 nM.
Same read-out and setting: under `Cn1ccc(-c2nc(N)cnc2-c2ccc3[nH]ncc3c2)n1` [Compound 1.299, 5-(1H-indazol-5-yl)-6-(1-methyl-1H-pyrazol-3-yl)pyrazin-2-amine] stands 1250 nM; under `Cc1ccn(-c2nc(N)cnc2-c2cc(C)c3[nH]ncc3c2)n1` [Compound 1.300, 5-(7-methyl-1H-indazol-5-yl)-6-(3-methyl-1H-pyrazol-1-yl)pyrazin-2-amine], 120 nM.
The same measure, in the same setting: with `Nc1cnc(-c2ccc3ncccc3c2)c(N2CCCC2=O)n1` [Compound 1.301, 1-(6-amino-3-(quinolin-6-yl)pyrazin-2-yl)pyrrolidin-2-one] the figure was above 10000 nM; with `Cc1cnn(-c2nc(N)cnc2-c2cc(Cl)c3ncccc3c2)c1` [Compound 1.303, 5-(8-chloroquinolin-6-yl)-6-(4-methyl-1H-pyrazol-1-yl)pyrazin-2-amine], 573 nM; with `Cn1ccc(-c2nc(N)cnc2-c2cc(Cl)c3ncsc3c2)n1` [Compound 1.305, 5-(4-chlorobenzo[d]thiazol-6-yl)-6-(1-methyl-1H-pyrazol-3-yl)pyrazin-2-amine], 96 nM.
Turning to `Nc1cnc(-c2cc(Cl)c3ncccc3c2)c(-n2ccc(C(F)(F)F)n2)n1` [Compound 1.306, 5-(8-chloroquinolin-6-yl)-6-(3-(trifluoromethyl)-1H-pyrazol-1-yl)pyrazin-2-amine], in test [1], the IC50 worked out at 120 nM.
As to `Nc1cnc(-c2cc(Cl)c3ncccc3c2)c(-c2ccn(C3CC3)n2)n1` [Compound 1.307, 5-(8-chloroquinolin-6-yl)-6-(1-cyclopropyl-1H-pyrazol-3-yl)pyrazin-2-amine], in test [1], the concentration for half-maximal inhibition (IC50) came out at 8480 nM.
In the case of `Cn1ccc(-c2nc(N)c(O)nc2-c2cc(Cl)c3ncccc3c2)n1` [Compound 1.310, 3-amino-6-(8-chloroquinolin-6-yl)-5-(1-methyl-1H-pyrazol-3-yl)pyrazin-2-ol], the IC50 in test [1] is 127 nM.
Still for that read-out and setting: under `Cn1ccc(-c2nc(N)c(C(N)=O)nc2-c2cc(Cl)c3ncccc3c2)n1` [Compound 1.311, 3-amino-6-(8-chloroquinolin-6-yl)-5-(1-methyl-1H-pyrazol-3-yl)pyrazine-2-carboxamide] stands 279 nM; under `COc1nc(-c2cc(Cl)c3ncccc3c2)c(-c2ccn(C)n2)nc1N` [Compound 1.312, 5-(8-chloroquinolin-6-yl)-3-methoxy-6-(1-methyl-1H-pyrazol-3-yl)pyrazin-2-amine], 251 nM; under `Cc1ccn(-c2nc(N)c(O)nc2-c2cc(Cl)c3ncccc3c2)n1` [Compound 1.313, 3-amino-6-(8-chloroquinolin-6-yl)-5-(3-methyl-1H-pyrazol-1-yl)pyrazin-2-ol], 1550 nM.
In the case of `Cn1ccc(-c2nc(N)cnc2-c2cc(F)c3ncccc3c2)n1` [Compound 1.314, 5-(8-fluoroquinolin-6-yl)-6-(1-methyl-1H-pyrazol-3-yl)pyrazin-2-amine], in test [1], the IC50 amounted to 1540 nM.
For `Cc1ccn(-c2nc(N)c(Br)nc2-c2cc(Cl)c3ncccc3c2)n1` [Compound 1.316, 3-bromo-5-(8-chloroquinolin-6-yl)-6-(3-methyl-1H-pyrazol-1-yl)pyrazin-2-amine], in test [1], the IC50 was determined as 40.1 nM.
As for `Cc1ccn(-c2nc(N)c(C(N)=O)nc2-c2cc(Cl)c3ncccc3c2)n1` [Compound 1.317, 3-amino-6-(8-chloroquinolin-6-yl)-5-(3-methyl-1H-pyrazol-1-yl)pyrazine-2-carboxamide], in test [1], the half-inhibitory concentration (IC50) is 279 nM.
As for `CCn1ccc(-c2nc(N)cnc2-c2cc(Cl)c3ncccc3c2)n1` [Compound 1.319, 5-(8-chloroquinolin-6-yl)-6-(1-ethyl-1H-pyrazol-3-yl)pyrazin-2-amine], the half-maximal inhibitory concentration (IC50) in test [1] stood at 1930 nM.
In the case of `Cn1ccc(-c2nc(N)c(Br)nc2-c2cc(Cl)c3ncccc3c2)n1` [Compound 1.324, 3-bromo-5-(8-chloroquinolin-6-yl)-6-(1-methyl-1H-pyrazol-3-yl)pyrazin-2-amine], in test [1], the IC50 turned out to be 12.5 nM.
For `Nc1cnc(-c2ccc3c(=O)[nH]ccc3c2)c(-c2ccccc2)n1` [Compound 1.327, 6-(5-amino-3-phenylpyrazin-2-yl)isoquinolin-1(2H)-one], the IC50 in test [1] stood at 173 nM.
In the case of `Cc1ccc(-c2nc(N)c(C#N)nc2-c2ccc3ncccc3c2)o1` [Compound No. 1.281, 3-amino-5-(5-methylfuran-2-yl)-6-(quinolin-6-yl)pyrazine-2-carbonitrile], in test [2], the inhibition at 0.01 µM worked out at 78%, the inhibition at 0.1 µM was determined as 88% and the inhibition at 1 µM worked out at 80%.
The corresponding values for `Cc1ccc(-c2nc(N)c(C#N)nc2-c2ccc3ncccc3c2)s1` [Compound No. 1.282, 3-amino-5-(5-methylthiophen-2-yl)-6-(quinolin-6-yl)pyrazine-2-carbonitrile] are 74%, 82% and 79%.
With `N#Cc1nc(-c2ccc3ncncc3c2)c(-c2ccccc2)nc1N` [Compound No. 1.283, 3-amino-5-phenyl-6-(quinazolin-6-yl)pyrazine-2-carbonitrile], in test [2], the inhibition at 0.01 µM came out at 63%, the inhibition at 0.1 µM came to 83% and the inhibition at 1 µM was 95%.
As for `CC(=O)Nc1nc(-c2ccccc2)c(-c2ccc3ncccc3c2)nc1C#N` [Compound No. 1.284, N-(3-cyano-6-phenyl-5-(quinolin-6-yl)pyrazin-2-yl)acetamide], in test [2], the inhibition at 0.01 µM was 32%, the inhibition at 0.1 µM amounted to 76% and the inhibition at 1 µM came to 83%.
With `Nc1cnc(-c2cc(Cl)c3[nH]ncc3c2)c(-c2ccccc2)n1` [Compound No. 1.289], in test [2], the inhibition at 0.001 µM came to 41%, the inhibition at 0.01 µM is 75%, the inhibition at 0.1 µM was 87% and the inhibition at 1 µM stood at 95%.
For `Cc1cc(C)n(-c2nc(N)cnc2-c2ccc3ncccc3c2)n1` [Compound No. 1.291, 6-(3,5-dimethyl-1H-pyrazol-1-yl)-5-(quinolin-6-yl)pyrazin-2-amine], in test [2], the inhibition at 0.001 µM is 0%, the inhibition at 0.01 µM came to 0% and the inhibition at 0.1 µM amounted to 0%.
`Cc1ccn(-c2nc(N)c(C#N)nc2-c2cc(Cl)c3ncccc3c2)n1` [Compound No. 1.292, 3-amino-6-(8-chloroquinolin-6-yl)-5-(3-methyl-1H-pyrazol-1-yl)pyrazine-2-carbonitrile] had an IC50 in test [2] (Table B1-2) of 2.4 nM. In test [2], the inhibition at 0.001 µM was found to be 50%, the inhibition at 0.01 µM was found to be 93% and the inhibition at 0.1 µM worked out at 95%.
Regarding `Nc1cnc(-c2ccc3ncccc3c2)c(-c2cc[nH]n2)n1` [Compound No. 1.293, 6-(1H-pyrazol-3-yl)-5-(quinolin-6-yl)pyrazin-2-amine], in test [2], the inhibition at 0.001 µM amounted to 28%, the inhibition at 0.01 µM stood at 32% and the inhibition at 0.1 µM is 31%.

These data come from US11028058B2, “Heterocyclic compounds as adenosine antagonists” (NUVATION BIO INC., priority 2017, dated 2021).
